From patent US11285167B2, “Synergistic nutritional neuroprotective compositions for ameliorating neural dysfunction” (CELAGENEX RESEARCH (INDIA) PVT. LTD., priority 2019, dated 2022) come the findings set out here.

Experiment [1] deals with Major depression disorder in Wistar rats. Briefly: Forced swim test in Reserpine-induced major depression disorder. The format is in vivo. To be noted: forced swim test 5 min, Reserpine 1.0 mg/kg induced, oral daily 7 days, mean ± SEM, n = 6.
Experiment [2] shares this test system. The experiment in a line: Open field test (ambulatory behavior) in Reserpine-induced major depression disorder. The format is in vivo. The settings on record: 6 minute session, Reserpine induced, oral daily 7 days, mean ± SEM, n = 6.

Regarding `CN(C)CCC[C@@]1(c2ccc(F)cc2)OCc2cc(C#N)ccc21` [Escitalopram, reference compound], in experiment [1], the Climbing is reported as 20.17 ± 0.87, the Immobility is 91.67 ± 0.80 and the “Total time spent in active swimming” value was 208.33 ± 0.80 s. The “No. of open arm entries (Open field test)” value in experiment [2] was 47.83 ± 0.60.
